The values below are quoted from earlier work in US7829698B2, “Nano-particles comprising cucurbituril derivatives, pharmaceutical composition containing the same, and process for the preparation thereof” (Postech Foundation, priority 2003, dated 2010).

Each structure is given as a SMILES string. Peptide text beside a SMILES is read from it.

The conditions of this series: host cucurbituril.
As for `NCCCCCO` [H2N(CH2)5OH], the “Kf (non-covalent coupling constant between cucurbituril and guest molecule)” value was 690 M⁻¹. In the case of `N[C@@H](Cc1ccccc1)C(=O)NCC(=O)O` [Phe-gly] (H-Phe-Gly-OH), the “Kf (non-covalent coupling constant between cucurbituril and guest molecule)” value was 1100 M⁻¹.

As to `NCCCCCCN` [NH2(CH2)6NH2], the “Kf (non-covalent coupling constant between cucurbituril and guest molecule)” value was 2.7e+06 M⁻¹. For `CC(C)[C@H](N)C(=O)O` [L-Val], the “Kf (non-covalent coupling constant between cucurbituril and guest molecule)” value was 1400 M⁻¹. `CC(C)C[C@H](N)C(=O)NCC(=O)O` [Leu-gly] (H-Leu-Gly-OH): the “Kf (non-covalent coupling constant between cucurbituril and guest molecule)” value was 370 M⁻¹. On to `CCC(=O)O` [CH3CH2COOH], for which the “Kf (non-covalent coupling constant between cucurbituril and guest molecule)” value is 590 M⁻¹. In the case of `CC(C)[C@H](NC(=O)CN)C(=O)O` [Gly-val] (H-Gly-Val-OH), the “Kf (non-covalent coupling constant between cucurbituril and guest molecule)” value is 1500 M⁻¹. In the case of `N[C@@H](Cc1ccccc1)C(=O)O` [Phe], the “Kf (non-covalent coupling constant between cucurbituril and guest molecule)” value is 1400 M⁻¹. For the molecule `CCCCCN` [Me(CH2)4NH2], the “Kf (non-covalent coupling constant between cucurbituril and guest molecule)” value is 24000 M⁻¹. For `NCCC(=O)O` [H2N(CH2)2COOH], the “Kf (non-covalent coupling constant between cucurbituril and guest molecule)” value is 2300 M⁻¹.

As for `N#CCCN` [H2N(CH2)2CN], the “Kf (non-covalent coupling constant between cucurbituril and guest molecule)” value is 440 M⁻¹. `C[C@H](N)C(=O)O` [L-Ala]: the “Kf (non-covalent coupling constant between cucurbituril and guest molecule)” value was 1000 M⁻¹.
